Measured values as given in the supplement of paper PMC10307832.

Assays:
Assay in all cases: relative viability (nuclei count vs DMSO), 5 days (fraction); higher = more cells survive
Afatinib + Vorinostat = compound: CN(C)C/C=C/C(=O)Nc1cc2c(Nc3ccc(F)c(Cl)c3)ncnc2cc1O[C@H]1CCOC1 [Afatinib] + O=C(CCCCCCC(=O)Nc1ccccc1)NO [Vorinostat] (partner 1 µM)
Summary of the method: (§1)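 Medians of duplicate plates are given as relative viability. That measure is the nuclei count in treated wells divided by the count in vehicle wells. Counts were taken on 4× images of lung cancer cell lines in 1536-well plates, 5 days after pin-tool dosing the day after seeding with one drug alone or a fixed anchor-drug dose plus five library-drug doses (not always all listed) in √10 steps.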

Afatinib + Pemetrexed = compound: CN(C)C/C=C/C(=O)Nc1cc2c(Nc3ccc(F)c(Cl)c3)ncnc2cc1O[C@H]1CCOC1 [Afatinib] + Nc1nc2[nH]cc(CCc3ccc(C(=O)N[C@@H](CCC(=O)O)C(=O)O)cc3)c2c(=O)[nH]1 [Pemetrexed] (partner 0.2 µM)
Summary of the method: as §1

Afatinib + Dasatinib = compound: CN(C)C/C=C/C(=O)Nc1cc2c(Nc3ccc(F)c(Cl)c3)ncnc2cc1O[C@H]1CCOC1 [Afatinib] + Cc1nc(Nc2ncc(C(=O)Nc3c(C)cccc3Cl)s2)cc(N2CCN(CCO)CC2)n1 [Dasatinib] (partner 0.075 µM)
Summary of the method: as §1

Afatinib + Palbociclib = compound: CN(C)C/C=C/C(=O)Nc1cc2c(Nc3ccc(F)c(Cl)c3)ncnc2cc1O[C@H]1CCOC1 [Afatinib] + CC(=O)c1c(C)c2cnc(Nc3ccc(N4CCNCC4)cn3)nc2n(C2CCCC2)c1=O [Palbociclib] (partner 0.5 µM)
Summary of the method: as §1

Cell Line | relative viability (Afatinib + Vorinostat; first compound 0.005 µM) | relative viability (Afatinib + Vorinostat; first compound 0.01581 µM) | relative viability (Afatinib + Vorinostat; first compound 0.05 µM) | relative viability (Afatinib + Vorinostat; first compound 0.1581 µM) | relative viability (Afatinib + Vorinostat; first compound 0.5 µM) | relative viability (Afatinib + Pemetrexed; first compound 0.005 µM) | relative viability (Afatinib + Pemetrexed; first compound 0.01581 µM) | relative viability (Afatinib + Pemetrexed; first compound 0.05 µM) | relative viability (Afatinib + Pemetrexed; first compound 0.1581 µM) | relative viability (Afatinib + Pemetrexed; first compound 0.5 µM) | relative viability (Afatinib + Dasatinib; first compound 0.005 µM) | relative viability (Afatinib + Dasatinib; first compound 0.01581 µM) | relative viability (Afatinib + Dasatinib; first compound 0.05 µM) | relative viability (Afatinib + Dasatinib; first compound 0.1581 µM) | relative viability (Afatinib + Dasatinib; first compound 0.5 µM) | relative viability (Afatinib + Palbociclib; first compound 0.005 µM) | relative viability (Afatinib + Palbociclib; first compound 0.01581 µM) | relative viability (Afatinib + Palbociclib; first compound 0.05 µM) | relative viability (Afatinib + Palbociclib; first compound 0.1581 µM) | relative viability (Afatinib + Palbociclib; first compound 0.5 µM)
NCI-H1793 | 0.733 | 0.424 | 0.411 | 0.401 | 0.38 | 0.814 | 0.582 | 0.584 | 0.582 | 0.503 | 0.33 | 0.341 | 0.343 | 0.361 | 0.272 | 0.258 | 0.3 | 0.273 | 0.218 | 0.21
NCI-H1915 | 0.525 | 0.518 | 0.497 | 0.476 | 0.464 | 0.532 | 0.491 | 0.468 | 0.52 | 0.427 | 0.361 | 0.347 | 0.313 | 0.301 | 0.304 | 0.564 | 0.539 | 0.526 | 0.506 | 0.491
NCI-H1944 | 0.514 | 0.562 | 0.42 | 0.413 | 0.406 | 0.605 | 0.583 | 0.511 | 0.378 | 0.453 | 0.211 | 0.205 | 0.21 | 0.185 | 0.186 | 0.287 | 0.33 | 0.272 | 0.206 | 0.237
NCI-H1975 | 0.711 | 0.667 | 0.59 | 0.357 | 0.26 | 0.287 | 0.28 | 0.295 | 0.276 | 0.209 | 0.455 | 0.386 | 0.306 | 0.15 | 0.11 | 0.72 | 0.469 | 0.472 | 0.253 | 0.21
NCI-H1993 | 0.662 | 0.437 | 0.731 | 0.466 | 0.541 | 0.569 | 0.526 | 0.638 | 0.551 | 0.506 | 0.459 | 0.561 | 0.585 | 0.729 | 0.576 | 0.532 | 0.571 | 0.539 | 0.538 | 0.577
NCI-H2009 | 0.772 | 0.775 | 0.812 | 0.701 | 0.755 | 1.04 | 1.01 | 0.977 | 1.03 | 1.01 | 0.306 | 0.295 | 0.341 | 0.259 | 0.285 | 0.238 | 0.25 | 0.253 | 0.231 | 0.247
NCI-H2023 | 0.445 | 0.566 | 0.592 | 0.556 | 0.549 | 0.222 | 0.209 | 0.231 | 0.189 | 0.208 | 0.61 | 0.498 | 0.492 | 0.445 | 0.546 | 0.382 | 0.333 | 0.284 | 0.265 | 0.275
NCI-H2085 | 0.746 | 0.684 | 0.66 | 0.623 | 0.682 | 0.821 | 0.671 | 0.842 | 0.681 | 0.699 | 0.238 | 0.263 | 0.22 | 0.199 | 0.212 | 0.445 | 0.448 | 0.42 | 0.36 | 0.419
